# Test results from patent US12570697B2, “Cyclic peptide useful in the treatment of cancer” (Syntherix Limited, priority 2019, dated 2026).
# Entries after “also recorded” stand apart in the source; their conditions may differ.
# System: NCI-H460 cells
# Test: viability assay of CLIP cyclised peptides on NCI-H460 cells (Example 3, Table 2)
# Type: cell-based, human
# Settings: for cytotoxic activity against NCIH460 cells (in words): with and without Nanocin-PRO
# Experimental: The following protocol was used: • 1) NCI-H460 cells were grown in Ham's F12 media supplemented with 10% FBS. • 2) Cells were harvested and seeded into 96-well plates at 500 cells per well. • 3) Peptides were diluted 1:2 from DMSO stock solutions to generate a 9-point dose range from a top concentration of 300 μM. Final DMSO concentration was constant at 1% (v/v). • 4) In line with the supplied Nanocin-PRO protocol, diluted peptides were incubated with Nanocin-PRO in media for 20 minutes prior to addition to cells. Nanocin-PRO was used at a final assay concentration of 0.2 μl per well. • 5) Cells were grown in the presence of peptide for 96 hours at 37° C., 5% CO2 in a humidified atmosphere. • 6) After 96 h, Alamar blue 10% (v/v) was added, incubated for a further 4 h and fluorescent product detected using a BMG FLUOstar plate reader. • 7) Media only background readings were subtracted before data was analysed using a 4-parameter logistic equation in GraphPad Prism.
# Viability assays of the CLIP cyclised peptides were performed to examine the effect of four HILRa clipped peptides on the viability of NCIH460 cells (up to three isomers for each of the peptides). […] Results for HILRa 16A, 16B, 16C and HILRa 17A, 17B and 17C are depicted in FIG. 2.
# Assays were performed in the presence and absence of the peptide transfection reagent Nanocin-PRO.
# [1] = 0.2 μl Nanocin-PRO per well, 96 h
Compound,% inhibition at 300 μM [1],"% inhibition at 300 μM (No Nanocin-PRO, 96 h)",cytotoxic activity against NCIH460 cells (in words),"IC50 (0.2 μl Nanocin-PRO per well, 96 h, values in brackets approximate)"
Ac-CDacHcaSarNapHcaNapC-NH2 [HILRa CL-16-C],0.5%,26.9%,completely removed the cell killing effect; also recorded: low detectable cancer cell-necrotic activity,–
Ac-CDacHcaSarNapHcaNapC-NH2 [HILRa-CL-16],–,–,negligible activity,–
Ac-CDacHcaSarProHcaNapC-NH2 [HILRa CL-14-B],6.8%,5.8%,low detectable cancer cell-necrotic activity,–
"COc1ccc2c(C[C@@H]3NC(=O)[C@@H](NC(C)=O)CSCc4cccc(c4)CSC[C@@H](C(N)=O)NC(=O)CC(c4ccc5ccccc5c4)NC(=O)[C@H](CCCNC(=N)N)NC(=O)C4N(CCC4(C)C)C(=O)CN(C)C(=O)[C@H](CCCNC(=N)N)NC3=O)cc(=O)oc2c1 (single isomer, unassigned) [HILRa CL-15-A, Ac-C[Dac]R[Sar][dmPro]R[Nap]C-NH2]",84.5%,22.7%,–,–
Ac-CDacHcaSarNapHcaNapC-NH2 [HILRa CL-16-A],0.0%,9.9%,completely removed the cell killing effect; also recorded: low detectable cancer cell-necrotic activity,–
"COc1ccc2c(C[C@@H]3NC(=O)[C@@H](NC(C)=O)CSCc4cccc(c4)CSC[C@@H](C(N)=O)NC(=O)CC(c4ccc5ccccc5c4)NC(=O)[C@H](CCCNC(=N)N)NC(=O)C4N(CCC4(C)C)C(=O)CN(C)C(=O)[C@H](CCCNC(=N)N)NC3=O)cc(=O)oc2c1 (single isomer, unassigned) [HILRa CL-15-C, Ac-C[Dac]R[Sar][dmPro]R[Nap]C-NH2]",88.5%,23.8%,–,–
Ac-CDacHcaSarProHcaNapC-NH2 [HILRa CL-14-A],9.9%,10.5%,low detectable cancer cell-necrotic activity,–
"COc1ccc2c(C[C@@H]3NC(=O)[C@@H](NC(C)=O)CSCc4cccc(c4)CSC[C@@H](C(N)=O)NC(=O)CC(c4ccc5ccccc5c4)NC(=O)[C@H](CCCNC(=N)N)NC(=O)C4N(CCC4(C)C)C(=O)CN(C)C(=O)[C@H](CCCNC(=N)N)NC3=O)cc(=O)oc2c1 (single isomer, unassigned) [HILRa CL-15-D, Ac-C[Dac]R[Sar][dmPro]R[Nap]C-NH2]",89.1%,25.2%,–,–
"COc1ccc2c(C[C@@H]3NC(=O)[C@@H](NC(C)=O)CSCc4cccc(c4)CSC[C@@H](C(N)=O)NC(=O)CC(c4ccc5ccccc5c4)NC(=O)[C@H](CCCNC(=N)N)NC(=O)C4N(CCC4(C)C)C(=O)CN(C)C(=O)[C@H](CCCNC(=N)N)NC3=O)cc(=O)oc2c1 (single isomer, unassigned) [HILRa CL-15-B, Ac-C[Dac]R[Sar][dmPro]R[Nap]C-NH2]",87.5%,20.2%,–,–
"COc1ccc2c(C[C@@H]3NC(=O)[C@@H](NC(C)=O)CSCc4cccc(c4)CSC[C@@H](C(N)=O)NC(=O)CC(c4ccc5ccccc5c4)NC(=O)[C@H](CCCNC(=N)N)NC(=O)CC(c4ccc5ccccc5c4)NC(=O)CN(C)C(=O)[C@H](CCCNC(=N)N)NC3=O)cc(=O)oc2c1 (single isomer, unassigned) [HILRa CL-17-A, Ac-C[Dac]R[Sar][Nap]R[Nap]C-NH2]",98.7%,90.3%,–,–
"COc1ccc2c(C[C@@H]3NC(=O)[C@@H](NC(C)=O)CSCc4cccc(c4)CSC[C@@H](C(N)=O)NC(=O)CC(c4ccc5ccccc5c4)NC(=O)[C@H](CCCNC(=N)N)NC(=O)CC(c4ccc5ccccc5c4)NC(=O)CN(C)C(=O)[C@H](CCCNC(=N)N)NC3=O)cc(=O)oc2c1 (single isomer, unassigned) [HILRa CL-17-C, Ac-C[Dac]R[Sar][Nap]R[Nap]C-NH2]",99.4%,99.6%,–,~880 nM
